Source: patent EP4603105A1, “PHARMACEUTICAL COMPOSITION CONTAINING CYCLIC COMPOUND HAVING SELECTIVE KRAS INHIBITORY EFFECT AGAINST HRAS AND NRAS” (CHUGAI SEIYAKU KABUSHIKI KAISHA, priority 2022, dated 2024)
*1 amine or outer side, *2 acyl side, *3 side chain or, on linkers, in order; H or OH if unused. Where a SMILES comes first, the peptide text is derived from it. Bridges are numbered along the chain shown (N, C = ends). [ ]: non-standard residue; d: D form. The star is where a group is joined. hPhe(3-Cl-4-CF3) = N[C@@H](CCc1ccc(C(F)(F)F)c(Cl)c1)C(=O)O; NPrPhe(4-CF3) = CCCN[C@@H](Cc1ccc(C(F)(F)F)cc1)C(=O)O; X13 = CCCN([C@@H](COC1CCC1)C(=O)[*:2])[*:1]; X8 = CCCN([C@@H](COCCC(C)C)C(=O)[*:2])[*:1]; X35 = CCCN([C@@H](CC(C)C)C(=O)[*:2])[*:1]; NMeGly(cPent) = CN[C@H](C(=O)O)C1CCCC1; NMeD = CN[C@@H](CC(=O)O)C(=O)O; NMeL = CN[C@@H](CC(C)C)C(=O)O; Morpholide = C1CN(*)CCO1; NMeA = CN[C@@H](C)C(=O)O; Aze = O=C(O)[C@@H]1CCN1; Ac4c = NC1(C(=O)O)CCC1; Sar = CNCC(=O)O

Experiments:
[1] = tested on: human lung cancer strain NCI-H441; format: cell-based
In short: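 Readout: […] after the ATP-based reagent. Compound: serial dilutions in dimethyl sulfoxide.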

[2] = biological target: GDP-bound NRAS wild-type protein (Homo sapiens, UniProt P01111); assay: Binding to NRAS by surface plasmon resonance (SPR), KD and KD ratio to KRAS; conditions: ratio of KD value for GDP-bound NRAS wild-type protein to KD value for KRAS (SPR)
GDP-bound NRAS wild-type protein, sequence (P01111 whole entry): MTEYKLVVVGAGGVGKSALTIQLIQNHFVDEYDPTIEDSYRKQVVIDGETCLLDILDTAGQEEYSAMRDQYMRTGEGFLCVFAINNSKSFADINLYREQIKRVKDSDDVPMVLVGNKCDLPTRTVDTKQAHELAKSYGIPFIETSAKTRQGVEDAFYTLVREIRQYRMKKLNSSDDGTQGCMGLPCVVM
In short: (§1)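 GDP-bound biotin-Avi RAS captured at ~100–300 RU, 30°C, pH 7.4 HBS containing 10 µM GDP, 10 mM MgCl2, 1 mM DTT, 0.01% Tween 20 and 4% DMSO. KD by 1:1 fitting.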

HRAS wild-type protein = HRAS wild-type protein (Homo sapiens, UniProt P01112); assay: Binding to HRAS by surface plasmon resonance (SPR), KD and KD ratio to KRAS; conditions: ratio of KD value for HRAS wild-type protein to KD value for KRAS (SPR)
HRAS wild-type protein, sequence (P01112 whole entry): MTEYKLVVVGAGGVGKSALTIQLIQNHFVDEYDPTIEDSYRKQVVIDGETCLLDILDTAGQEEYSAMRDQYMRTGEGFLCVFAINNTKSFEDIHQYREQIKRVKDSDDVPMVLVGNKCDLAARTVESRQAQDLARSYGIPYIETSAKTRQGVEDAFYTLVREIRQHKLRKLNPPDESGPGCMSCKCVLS
In short: as §1

| SMILES | IC50 [1] [nM] | NRAS /KRAS [2] | HRAS /KRAS (HRAS wild-type protein) |
| --- | --- | --- | --- |
| CC[C@H](C)[C@@H]1NC(=O)[C@H](C2CC2)N(C)C(=O)C[C@@H](C(=O)N(C)C)N(C)C(=O)[C@H](C2CCCC2)N(C)C(=O)C2(CCCC2)N(C)C(=O)[C@@H]2C[C@@H](C)CN2C(=O)[C@H](CCc2cc(F)c(C(F)(F)F)c(F)c2)NC(=O)CN(C)C(=O)[C@H](Cc2ccc(C)cc2)N2CC/C=C\C[C@@H](C2=O)N(C)C(=O)CN(C)C1=O [PP1813] | 22.6 | A (a compound having 10 or more and less than 20 is denoted as A) | B (a compound having 3 or more and less than 10 is denoted as B) |
| CC[C@H](C)[C@@H]1NC(=O)[C@H](CC)N(C)C(=O)C[C@@H](C(=O)N(C)C)N(C)C(=O)[C@H](C2CCCC2)N(C)C(=O)C2(CCCC2)N(C)C(=O)[C@@H]2C[C@@H](C)CN2C(=O)[C@H](CCc2cc(F)c(C(F)(F)F)c(F)c2)NC(=O)CN(C)C(=O)[C@H](Cc2ccc(C)cc2)N2CC/C=C\C[C@@H](C2=O)N(C)C(=O)[C@@H]2CCCN2C1=O [PP1814] | 26.2 | A (a compound having 10 or more and less than 20 is denoted as A) | A (a compound having 10 or more and less than 20 is denoted as A) |
| CCCN1C(=O)C[C@@H](C(=O)N2CCOCC2)N(C)C(=O)[C@H](C2CCCC2)N(C)C(=O)C2(CCC2)NC(=O)[C@@H]2CCCN2C(=O)[C@H](CCc2ccc(C(F)(F)F)c(Cl)c2)NC(=O)CN(C)C(=O)[C@H](Cc2ccc(C(F)(F)F)cc2)N(CCC)C(=O)CN(C)C(=O)CN(C)C(=O)[C@H](C(C)C)NC(=O)[C@@H]1CC(C)C [PP1815] ([X35]V[Sar][Sar][NPrPhe(4-CF3)][Sar][hPhe(3-Cl-4-CF3)]P[Ac4c][NMeGly(cPent)][NMeD]-Morpholide; lactam N-11) | 83 | B (a compound having 3 or more and less than 10 is denoted as B) | B (a compound having 3 or more and less than 10 is denoted as B) |
| CCCN1C(=O)CN(C)C(=O)CN(C)C(=O)[C@H]([C@@H](C)CC)NC(=O)[C@H](CC(C)C)N(C)C(=O)C[C@@H](C(=O)N2CCOCC2)N(C)C(=O)[C@H](C2CCCC2)N(C)C(=O)C2(CCC2)NC(=O)[C@@H]2CCCN2C(=O)[C@H](CCc2ccc(C(F)(F)F)c(Cl)c2)NC(=O)CN(C)C(=O)[C@@H]1COC1CCC1 [PP1816] ([NMeL]I[Sar][Sar][X13][Sar][hPhe(3-Cl-4-CF3)]P[Ac4c][NMeGly(cPent)][NMeD]-Morpholide; lactam N-11) | 63.8 | B (a compound having 3 or more and less than 10 is denoted as B) | C (A compound having a KD ratio of 0.1 or more and less than 3 is denoted as C) |
| CCCN1C(=O)CN(C)C(=O)CN(C)C(=O)[C@H]([C@@H](C)CC)NC(=O)[C@H](CC(C)C)N(C)C(=O)C[C@@H](C(=O)N2CCOCC2)N(C)C(=O)[C@H](C2CCCC2)N(C)C(=O)C2(CCC2)NC(=O)[C@@H]2CCCN2C(=O)[C@H](CCc2ccc(C(F)(F)F)c(Cl)c2)NC(=O)CN(C)C(=O)[C@@H]1COCCC(C)C [PP1817] ([NMeL]I[Sar][Sar][X8][Sar][hPhe(3-Cl-4-CF3)]P[Ac4c][NMeGly(cPent)][NMeD]-Morpholide; lactam N-11) | 20.4 | C (A compound having a KD ratio of 0.1 or more and less than 3 is denoted as C) | C (A compound having a KD ratio of 0.1 or more and less than 3 is denoted as C) |
| CCCN1C(=O)[C@@H]2CCN2C(=O)[C@H](C)N(C)C(=O)[C@H]([C@@H](C)CC)NC(=O)[C@H](CC(C)C)N(C)C(=O)C[C@@H](C(=O)N2CCOCC2)N(C)C(=O)[C@H](C2CCCC2)N(C)C(=O)C2(CCC2)NC(=O)[C@@H]2CCCN2C(=O)[C@H](CCc2ccc(C(F)(F)F)c(Cl)c2)NC(=O)CN(C)C(=O)[C@@H]1COC1CCC1 [PP1818] ([NMeL]I[NMeA][Aze][X13][Sar][hPhe(3-Cl-4-CF3)]P[Ac4c][NMeGly(cPent)][NMeD]-Morpholide; lactam N-11) | 74.8 | C (A compound having a KD ratio of 0.1 or more and less than 3 is denoted as C) | B (a compound having 3 or more and less than 10 is denoted as B) |
| CCCN1C(=O)[C@@H]2CCN2C(=O)[C@H](C)N(C)C(=O)[C@H]([C@@H](C)CC)NC(=O)[C@H](CC(C)C)N(C)C(=O)C[C@@H](C(=O)N(C)C)N(C)C(=O)[C@H](C2CCCC2)N(C)C(=O)C2(CCC2)NC(=O)[C@@H]2CCCN2C(=O)[C@H](CCc2ccc(C(F)(F)F)c(Cl)c2)NC(=O)CN(C)C(=O)[C@@H]1COCCC(C)C [PP1820] ([NMeL]I[NMeA][Aze][X8][Sar][hPhe(3-Cl-4-CF3)]P[Ac4c][NMeGly(cPent)][NMeD]-NMe2; lactam N-11) | 40.7 | C (A compound having a KD ratio of 0.1 or more and less than 3 is denoted as C) | C (A compound having a KD ratio of 0.1 or more and less than 3 is denoted as C) |
| CCO[C@@H]1C[C@H]2C(=O)NC3(CCC3)C(=O)N(C)[C@@H](C3CCCC3)C(=O)N(C)[C@H](C(=O)N(C)C)CC(=O)N(C)[C@@H](CC)C(=O)N[C@@H]([C@@H](C)CC)C(=O)N(C)CC(=O)N(C)[C@H]3C/C=C\CCN(C3=O)[C@@H](Cc3ccc(C(F)(F)F)cc3)C(=O)N(C)CC(=O)N[C@@H](CCc3cc(C)c(Cl)c(C)c3)C(=O)N2C1 [PP1821] | 105 | A (a compound having 10 or more and less than 20 is denoted as A) | A (a compound having 10 or more and less than 20 is denoted as A) |
| CC[C@H](C)[C@@H]1NC(=O)[C@H](CC)N(C)C(=O)C[C@@H](C(=O)N(C)C)N(C)C(=O)[C@H](C2CCCC2)N(C)C(=O)C2(CCC2)NC(=O)[C@@H]2CCCN2C(=O)[C@H](CCc2cc(C)c(Cl)c(C)c2)NC(=O)CN(C)C(=O)[C@H](Cc2ccc(C(F)(F)F)cc2)N2CC/C=C\C[C@@H](C2=O)N(C)C(=O)CN(C)C1=O [PP1822] | 107 | A (a compound having 10 or more and less than 20 is denoted as A) | B (a compound having 3 or more and less than 10 is denoted as B) |
| CCO[C@@H]1C[C@H]2C(=O)NC3(CCCC3)C(=O)N(C)[C@@H](C3CCCC3)C(=O)N(C)[C@H](C(=O)N(C)C)CC(=O)N(C)[C@@H](CC)C(=O)N[C@@H]([C@@H](C)CC)C(=O)N(C)CC(=O)N(C)[C@H]3C/C=C\CCN(C3=O)[C@@H](Cc3ccc(C(F)(F)F)cc3)C(=O)N(C)CC(=O)N[C@@H](CCc3cc(C)c(Cl)c(C)c3)C(=O)N2C1 [PP1823] | 55.9 | A (a compound having 10 or more and less than 20 is denoted as A) | A (a compound having 10 or more and less than 20 is denoted as A) |
| CCCN1C(=O)C[C@@H](C(=O)N(C)C)N(C)C(=O)[C@H](C2CCCC2)N(C)C(=O)C2(CCC2)NC(=O)[C@@H]2C[C@@H](OCC)CN2C(=O)[C@H](CCc2cc(F)c(C(F)(F)F)c(F)c2)NC(=O)CN(C)C(=O)[C@H](Cc2ccc(C(F)(F)F)cc2)N2CC/C=C\C[C@@H](C2=O)N(C)C(=O)CNC(=O)[C@H]([C@@H](C)CC)NC(=O)[C@@H]1CC(C)C [PP1826] | 17.6 | A (a compound having 10 or more and less than 20 is denoted as A) | A (a compound having 10 or more and less than 20 is denoted as A) |
| CCO[C@@H]1C[C@H]2C(=O)NC3(CC(C)(C)C3)C(=O)N(C)[C@@H](C3CCCC3)C(=O)N(C)[C@H](C(=O)N(C)CC)CC(=O)N(C)[C@H]3CCCC/C=C/c4ccc(cc4)C[C@@H](C(=O)N(C)CC(=O)N[C@@H](CCc4ccc(C(F)(F)F)c(OC)c4)C(=O)N2C1)N1CC/C=C\C[C@@H](C1=O)N(C)C(=O)CN(C)C(=O)[C@H]([C@@H](C)CC)NC3=O [PP1830] | 4.7 | A (a compound having 10 or more and less than 20 is denoted as A) | B (a compound having 3 or more and less than 10 is denoted as B) |
| CCO[C@@H]1C[C@H]2C(=O)NC3(CC(C)(C)C3)C(=O)N(C)[C@@H](C3CCCC3)C(=O)N(C)[C@H](C(=O)N(C)C)CC(=O)N(C)[C@H]3CCCC/C=C/c4ccc(cc4)C[C@@H](C(=O)N(C)CC(=O)N[C@@H](CCc4cc(F)c(C(F)(F)F)c(F)c4)C(=O)N2C1)N1CC/C=C\C[C@@H](C1=O)N(C)C(=O)CN(C)C(=O)[C@H]([C@@H](C)CC)NC3=O [PP1831] | 3 | A (a compound having 10 or more and less than 20 is denoted as A) | A (a compound having 10 or more and less than 20 is denoted as A) |
| CCO[C@@H]1C[C@H]2C(=O)NC3(CC(C)(C)C3)C(=O)N(C)[C@@H](C3CCCC3)C(=O)N(C)[C@H](C(=O)N(C)C)CC(=O)N(C)[C@H]3CCCC/C=C/c4ccc(cc4)C[C@@H](C(=O)N(C)CC(=O)N[C@@H](CCc4ccc(C(F)(F)F)c(OC)c4)C(=O)N2C1)N1CC/C=C\C[C@@H](C1=O)N(C)C(=O)CN(C)C(=O)[C@H]([C@@H](C)CC)NC3=O [PP1832] | 2.5 | B (a compound having 3 or more and less than 10 is denoted as B) | B (a compound having 3 or more and less than 10 is denoted as B) |
